Reference: patent US20170128435A1, “TREATMENT OF MULTIPLE SCLEROSIS WITH LAQUINIMOD” (Teva Pharmaceutical Industries, Ltd., priority 2009, published 2017)
Where two headings read alike, the source gives them in different places.

How the values were obtained:
[1] = test system: Relapsing-Remitting Multiple Sclerosis; conditions: 0.3 mg/day oral dose (Comi, 2007); cited from earlier work
relapsing MS = conditions: cited from earlier work
[2] = test system: subjects with Relapsing-Remitting Multiple Sclerosis (RRMS); experiment: Phase III clinical trial BRAVO: laquinimod over placebo, with Interferon β-1a (Avonex®) reference arm; format: in vivo, human; conditions: daily oral 0.6 mg, RRMS patients
Procedure: A multinational, multicenter, randomized, parallel-group, clinical trial is performed in subjects with RRMS (“BRAVO”). BRAVO is conducted to assess the efficacy, safety and tolerability of laquinimod over placebo in a double-blinded design and of a reference arm of Interferon β-1a (Avonex®) in a rater-blinded design. A multinational, Multicenter, Randomized, Parallel-Group study performed in subjects with Relapsing-Remitting Multiple Sclerosis (RRMS) to assess the efficacy, safety and tolerability of laquinimod over placebo in a double-blind design and of a reference arm of Interferon β-1a (Avonex®)in a rater-blinded design. Treatment phase: 24 months of once-daily oral administration of laquinimod 0.6 mg, matching oral placebo or once-weekly intramuscular administration of Interferon β-1a (Avonex®) 30 mcg. Eligible subjects are randomized in a 1:1:1 ratio (oral laquinimod: oral placebo: Avonex®) and assigned to one of the following three treatment arms: • 1. Laquinimod 0.6 mg per os once daily (400 subjects). The 0.6 mg laquinimod is administered as laquinimod capsules which contains 0.6 mg of Laquinimod Acid per capsule with meglumine. • 2. Matching placebo (for laquinimod) per os once daily (400 subjects). • 3. Interferon β-1a (Avonex®) 30 mcg intramuscular injection once weekly (400 subjects). Subjects on oral treatment are managed in a double-blind manner. Subjects assigned to injectable treatment with Avonex® and their Treating Neurologist/Physician are unblinded to the treatment assignment, but assessed neurologically by an Examining Neurologist/Physician in a blinded manner (potential IM injection sites are covered). During the study, the following assessments are performed (regardless of the treatment assignment) at the specified time points: • 1. Vital signs are measured at each study visit. • 2. A physical examination is performed at months −1 (screening), 0 (baseline) 1, 3, 6, 12, 18 and 24 (termination/early discontinuation). • 3. The following safety clinical laboratory tests are performed: • a. Complete blood count (CBC) with differential—at all scheduled visits. A reticulocyte count is added to the CBC at months 0 (baseline) and 24 (termination/early discontinuation) as well as in occasions of significant decrease in hemoglobin. • b. Serum chemistry (including electrolytes, liver enzymes, direct and total bilirubin, CPK and pancreatic amylase), and urinalysis—at all scheduled visits. • c. Serum TSH, T3 and Free T4 are measured at months 0 (baseline), 6, 12, 18 and 24 (termination/early discontinuation). • d. […] Markers of inflammation (serum conventional C-reactive protein and fibrinogen) are measured at all scheduled visits. • 5. […]

[3] = test system: subjects with relapsing remitting multiple sclerosis (RRMS); experiment: Phase III clinical trial ALLEGRO: daily oral laquinimod 0.6 mg vs placebo; format: in vivo, human; conditions: daily oral 0.6 mg, RRMS patients
Procedure: A multinational, multicenter (approximately 175 centers), randomized, double-blinded, parallel-group, placebo-controlled clinical trial (“ALLEGRO”) is conducted to evaluate the safety, tolerability and efficacy of daily oral administration of laquinimod 0.6 mg in subjects with relapsing remitting multiple sclerosis (RRMS). A multinational, multicenter, randomized, double-blind, parallel-group, placebo-controlled study, to evaluate the safety, tolerability and efficacy of daily oral administration of laquinimod 0.6 mg in subjects with relapsing remitting multiple sclerosis (RRMS). Double blind treatment phase: 24 months of once-daily oral administration of daily dose of 0.6 mg laquinimod or matching placebo Eligible subjects are equally randomized into one of the following treatment arms: • 1. Laquinimod capsules 0.6 mg. The 0.6 mg laquinimod is administered as laquinimod capsules which contains 0.6 mg of Laquinimod Acid per capsule with meglumine. • 2. Matching placebo capsules. Subjects are evaluated at study sites for 12 scheduled visits of the double blind phase at months: −1 (screening), 0 (baseline), 1, 2, 3, 6, 9, 12, 15, 18, 21 and 24 (termination/early discontinuation). In case of the 6 months extended study, subjects are evaluated at study sites at months 27 and 30 (termination/early discontinuation of extended study), in this case month 24 is a regular scheduled visit. The following assessments are performed at specified time points: • 1. Vital signs are measured at each study visit. • 2. A physical examination is performed at months −1 (screening), 0 (baseline) 1, 3, 6, 12, 18 and 24 (termination/early discontinuation core study). In case of the 6 months extended study, additional examination is performed at month 30 (termination/early discontinuation of extended study). • 3. The following safety clinical laboratory tests are performed: • a. Complete blood count (CBC) with differential—at all scheduled visits. A reticulocyte count is added to the CBC at months 0 (baseline) and 24/30 (termination/early discontinuation). • b. Serum chemistry (including electrolytes, liver enzymes, direct and total bilirubin and pancreatic amylase and CPK), and urinalysis—at all scheduled visits. • c. A rapid urine β-hCG test is performed in women of child-bearing potential at baseline (month 0) and at each scheduled study visit thereafter (at site). • d. β-hCG in women of child-bearing potential is performed at all scheduled visits. • e. Starting after visit Month 3 a rapid urine β-hCG test is performed in women of child-bearing potential every 28 (±2) days. The subject is contacted by telephone within 72 hours after the test is scheduled to be performed and asked specific questions regarding the test. In case of suspected pregnancy (positive urine β-hCG test result), the caller makes sure that the study drug has been discontinued and the subject is instructed to arrive at the site as soon as possible with all study drugs. • 4. Markers of inflammation (serum conventional C-reactive protein and fibrinogen)—at screening, baseline and all scheduled visits thereafter. • 5. During the first 3 months periodical phone calls are placed by the site personnel every two weeks. […] ECG is performed at months −1 (screening; additional recording, up to 30 minutes apart is performed if QTc is […] 450 msec), (baseline; three recordings, 15 minutes apart), 1, 2, 3, 6, 12, 18 and 24 (termination/early discontinuation). In case of the 6 months extended study, ECG is performed at month 30 (termination/early discontinuation of the extended study). • 7. Chest X-ray is performed at months −1 (screening), (if not performed within 7 months prior to the screening visit). • 8. Adverse Events (AEs) are monitored throughout the study. • 9. Concomitant medications are monitored throughout the study. • 10. […]

[4] = (Polman, 2005; Sandberg-Wollheim, 2005); cited from earlier work

| Compound | MRI and clinical effect as compared to placebo [1] | development of active MRI lesions (relapsing MS; 0.3 mg/day oral dose, relapsing MS (RRMS and SPMS) (Polman, 2005)) | development of active MRI lesions (relapsing MS; relapsing MS, dose not stated (Polman, 2005)) | accumulation of physical disability, as measured by the MSFC score at the end of the treatment period [2] | accumulation of physical disability, as measured by time to confirmed progression of EDSS [2] | brain atrophy, as measured by percent brain volume change from baseline to the end of the treatment period [2] | number of confirmed relapses (directly related to the relapse rate) ([2]; treatment period) | MRI-monitored disease activity: cumulative number of enhancing lesions on T1-weighted images [3] | MRI-monitored disease activity: cumulative number of new T2 lesions [3] | MRI-monitored disease activity: cumulative number of new hypointense lesions on T1-scans [3] | accumulation of physical disability, as measured by the time to confirmed progression of EDSS [3] | relapse rate ([3]; double blind study period) | number of confirmed relapses during the double blind study period ([3]; vs placebo) | oral bioavailability [4] |
| --- | --- | --- | --- | --- | --- | --- | --- | --- | --- | --- | --- | --- | --- | --- |
| CCN(C(=O)c1c(O)c2c(Cl)cccc2n(C)c1=O)c1ccccc1 [laquinimod] | neither MRI nor clinical effect | reduce | reduce | reduces | reduces | reduces | reduces | reduces | reduces | reduces | reduces | reduces | reduces |  |
| CCN(C(=O)c1c(O)c2c(Cl)cccc2n(C)c1=O)c1ccccc1 [Laquinimod sodium] |  |  |  |  |  |  |  |  |  |  |  |  |  | high |
